Data as given in ChEMBL document CHEMBL1149280, “Highly selective fluorescent analogue of the potent delta-opioid receptor antagonist Dmt-Tic” (J Med Chem, 2004).
pIC50: −log10 of the molar value. Where a SMILES comes first, the peptide text is derived from it.

Tests used:
[1] = target: Mu-type opioid receptor (Cavia porcellus, UniProt P97266); test: Agonistic activity at mu opioid receptor in guinea pig ileum assessed as inhibition of electrically evoked twitch; assay type: functional, tissue-based
Chain of Mu-type opioid receptor (Cavia porcellus, UniProt P97266) (P97266 whole entry): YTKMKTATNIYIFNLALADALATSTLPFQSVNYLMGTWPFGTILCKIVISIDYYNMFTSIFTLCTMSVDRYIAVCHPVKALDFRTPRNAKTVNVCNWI

[2] = target: Opioid receptors; mu & delta (Rattus norvegicus) (UniProt P33533+P33535); test: Selectivity of rat brain delta opioid receptor over rat brain mu opioid receptor
Chain of Opioid receptors; mu & delta (Rattus norvegicus) (P33533 whole entry, looked up): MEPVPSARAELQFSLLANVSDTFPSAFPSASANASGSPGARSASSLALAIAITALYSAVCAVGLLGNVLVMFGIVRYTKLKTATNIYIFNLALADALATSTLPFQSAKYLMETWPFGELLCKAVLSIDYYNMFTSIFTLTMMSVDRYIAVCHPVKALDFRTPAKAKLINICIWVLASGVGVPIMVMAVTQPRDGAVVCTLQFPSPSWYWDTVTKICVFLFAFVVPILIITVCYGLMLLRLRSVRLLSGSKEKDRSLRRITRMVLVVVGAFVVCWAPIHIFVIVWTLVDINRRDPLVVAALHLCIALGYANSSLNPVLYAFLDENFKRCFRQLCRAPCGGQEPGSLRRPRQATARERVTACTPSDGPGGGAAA
Chain of Opioid receptors; mu & delta (Rattus norvegicus) (P33535 whole entry, looked up): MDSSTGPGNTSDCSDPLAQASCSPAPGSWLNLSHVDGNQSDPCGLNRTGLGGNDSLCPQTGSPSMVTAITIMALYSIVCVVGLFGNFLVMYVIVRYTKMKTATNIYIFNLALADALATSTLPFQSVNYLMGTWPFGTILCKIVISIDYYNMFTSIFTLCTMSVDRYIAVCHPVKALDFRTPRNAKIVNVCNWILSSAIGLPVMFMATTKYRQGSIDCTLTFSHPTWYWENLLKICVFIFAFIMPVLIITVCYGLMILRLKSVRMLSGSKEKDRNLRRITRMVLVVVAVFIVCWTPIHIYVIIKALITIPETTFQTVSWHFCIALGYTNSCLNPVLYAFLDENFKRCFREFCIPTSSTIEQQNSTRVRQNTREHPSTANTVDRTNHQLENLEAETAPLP

[3] = target: Delta-type opioid receptor (Mus musculus) (UniProt P32300); test: Antagonist activity at delta opioid receptor in mouse vas deferens assessed as effect on electrically evoked twitch; assay type: functional, tissue-based; details: filed as antagonist
Chain of Delta-type opioid receptor (Mus musculus) (P32300 whole entry): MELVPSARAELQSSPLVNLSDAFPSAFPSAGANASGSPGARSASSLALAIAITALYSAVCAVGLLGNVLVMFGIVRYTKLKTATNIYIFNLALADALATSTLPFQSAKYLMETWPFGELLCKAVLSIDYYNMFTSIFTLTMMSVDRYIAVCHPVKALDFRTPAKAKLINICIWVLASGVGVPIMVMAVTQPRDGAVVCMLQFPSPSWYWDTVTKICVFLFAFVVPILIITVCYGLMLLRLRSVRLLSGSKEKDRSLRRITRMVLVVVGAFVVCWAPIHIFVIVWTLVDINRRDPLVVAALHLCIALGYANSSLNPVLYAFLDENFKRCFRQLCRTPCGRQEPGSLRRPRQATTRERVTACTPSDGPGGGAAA

[4] = target: Delta-type opioid receptor (Mus musculus, UniProt P32300); test: Agonistic activity at delta opioid receptor in mouse vas deferens assessed as inhibition of electrically evoked twitch; assay type: functional, tissue-based
Chain of Delta-type opioid receptor (Mus musculus, UniProt P32300) (P32300 whole entry): as above

[5] = target: Delta-type opioid receptor (Rattus norvegicus, UniProt P33533); test: Displacement of [3H]DPDPE from delta opioid receptor in rat brain synaptosomes P2 fraction; assay type: subcellular
Chain of Delta-type opioid receptor (Rattus norvegicus, UniProt P33533) (P33533 whole entry): as the sequence (P33533 whole entry, looked up) above

[6] = target: Mu-type opioid receptor (Rattus norvegicus, UniProt P33535); test: Displacement of [3H]DAMGO from mu opioid receptor in rat brain synaptosomes P2 fraction; assay type: subcellular
Chain of Mu-type opioid receptor (Rattus norvegicus, UniProt P33535) (P33535 whole entry): as the sequence (P33535 whole entry, looked up) above

Structure (SMILES)	pIC50 [1]	Ratio Ki [2]	also measured
Cc1cc(O)cc(C)c1C[C@H](N)C(=O)N1Cc2ccccc2C[C@H]1C(=O)N[C@@H](CCC(=O)O)C(=O)NCCCCCN	< 6.00	–	–
Cc1cc(O)cc(C)c1C[C@H](N)C(=O)N1Cc2ccccc2C[C@H]1C(=O)N[C@@H](CCC(=O)O)C(=O)NCCCCCNC(=S)Nc1ccc(-c2c3ccc(=O)cc-3oc3cc(O)ccc23)c(C(=O)O)c1	< 6.00	–	–
Cc1cc(O)cc(C)c1C[C@H](N)C(=O)N1Cc2ccccc2CC1C(=O)N[C@@H](CCC(=O)O)C(=O)NCCCCCN (stereo not given in full)	–	1700	–
Cc1cc(O)cc(C)c1C[C@H](N)C(=O)N1Cc2ccccc2CC1C(=O)N[C@@H](CCC(=O)O)C(=O)NCCCCCNC(=S)Nc1ccc(-c2c3ccc(=O)cc-3oc3cc(O)ccc23)c(C(=O)O)c1 (stereo not given in full)	–	4370	Activity [3]: Irreversible Antagonist
Cc1cc(O)cc(C)c1C[C@H](N)C(=O)N1Cc2ccccc2C[C@H]1C(=O)N[C@@H](CCC(=O)O)C(N)=O (HELM PEPTIDE1{[Cc1cc(O)cc(C)c1C[C@H](N)C(=O)[*:2]].[Tic].E.[am]}$$$$V2.0)	< 6.00	22600	IC50 [4]: 2.58 nM (agonist); Ki [5]: 0.06 nM (antagonist); Ki [6]: 1360 nM (antagonist)
